Measured values: patent publication US12570984B2, “DNA aptamer specifically binding to glutathione and use thereof” (Nexmos Co., LTD, priority 2020, dated 2026)

Legend:
[1] = target: T1, tyrosinase (Homo sapiens, UniProt P14679); experiment: Whitening efficacy test, in vitro cell-based tyrosinase activity (MNT-1 cells); details: 72 hours, final 100 μM GSH, 1 μM Apt G, 0.01% arbutin, L-DOPA, absorbance 475 nm
T1 sequence (P14679 19-529): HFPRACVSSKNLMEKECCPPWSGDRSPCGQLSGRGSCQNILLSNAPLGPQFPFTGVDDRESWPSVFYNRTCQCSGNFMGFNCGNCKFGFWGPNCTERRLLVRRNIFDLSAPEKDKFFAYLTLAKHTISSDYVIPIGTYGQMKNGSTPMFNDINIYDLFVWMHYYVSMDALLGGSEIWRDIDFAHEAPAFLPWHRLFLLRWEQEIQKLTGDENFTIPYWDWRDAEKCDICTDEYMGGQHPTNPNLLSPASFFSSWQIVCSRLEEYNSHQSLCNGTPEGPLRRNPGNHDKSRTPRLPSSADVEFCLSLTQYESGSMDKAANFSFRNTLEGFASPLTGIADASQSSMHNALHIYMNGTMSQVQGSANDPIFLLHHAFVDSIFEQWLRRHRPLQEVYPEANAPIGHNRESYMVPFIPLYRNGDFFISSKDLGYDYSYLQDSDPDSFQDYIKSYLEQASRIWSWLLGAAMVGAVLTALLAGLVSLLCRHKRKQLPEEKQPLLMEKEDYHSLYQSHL
Procedure: The final concentration of each component in this experiment was 100 μM GSH, 1 μM Apt G, 0.01% arbutin,
100 μM GSH and 1 μM of the prepared aptamer (molar concentration of 100:1) were added to the media and reacted at room temperature for 30 minutes.
MNT-1 cells were seeded on a 6-well plate and incubated for 24 hours at 37° C., 5% CO2 incubator.
After treating each of the prepared samples, the samples were again incubated at 37° C. and 5% CO2 incubator for 72 hours.
After incubation, ice-cold lysis buffer (RIPA buf.+ protease inhibitor) was used to remove the cells from the plate, and the removed cells were transferred to an EP-tube and centrifuged to remove only the supernatant.
Lysate, L-DOPA, potassium phosphate buffer (pH6.5) was added to a 96 well plate and mixed (each test group used the same amount of protein through protein quantification).
After incubation for 1 hour at 37° C., 5% CO2 incubator, absorbance was measured at 475 nm using a plate reader.

[2] = test system: tyrosinase; details: final 20 μM GSH; 37° C. 10 minutes; absorbance 490 nm; N=5
Procedure: The final concentrations of each component in this experiment were 20 μM GSH, 0.2 μM Apt G, and 0.01% arbutin.
300 μM GSH and 3 μM of the prepared aptamer (molar concentration of 100:1) were dissolved in tertiary distilled water and reacted at room temperature for 30 minutes.
In a 96 well plate, 200 μL of 0.1 M potassium phosphate buffer (pH6.5), 20 μL of sample, 20 μL of 2 KU/mL tyrosinase, and 60 μL of 1.0 mM tyrosine were sequentially added and reacted at 37° C. for 10 minutes.
After the reaction, absorbance was measured at 490 nm using a plate reader.

[3] = Antioxidant efficacy test, DTNB assay (sulfhydryl group determination) of GSH stored at 37° C.; details: day 16, storage at 37° C.; final 125 μM GSH, 1.25 μM aptamin G; n=5
Procedure: In this experiment, the final concentration of each component was 125 μM GSH and 1.25 μM aptamin G.
The prepared aptamer (100:1) of the prepared aptamer (100:1) of 250 μM GSH and 2.5 μM was dissolved in the 3th distilled water for 30 minutes at room temperature.
The above GSH-Aptamin G complex was stored for a certain period of time under severe conditions (37° C.), and samples were obtained every 4 days and measured for 16 days.
Just before the sample measurement, 10 mm DTNB (4 mg/ml, buffer: 0.1 M potassium Phosphate buffer, pH 8.0) was prepared to mix the sample (50 μL) of DTNB solution and shaking incubation.
After the reaction, the UV Absorbance value was measured at 412 nm and REF wavelength 605 nm using the Plate Reader.

| inhibition of the activity of tyrosinase [2] | amount of GSH remaining unoxidized [3] | SMILES | inhibition of tyrosinase activity (cell test) [1] |
| --- | --- | --- | --- |
|  |  | OC[C@H]1O[C@@H](Oc2ccc(O)cc2)[C@H](O)[C@@H](O)[C@@H]1O [Arbutin] | about 25% |
| about 75% | about 60% | N[C@@H](CCC(=O)N[C@@H](CS)C(=O)NCC(=O)O)C(=O)O [GSH, Glutathione] | tendency not to inhibit the activity of tyrosinase |
